Measurements published in patent publication US20260285850A1, “SUBSTITUTED OXAZOLIDINONES AND IMIDAZOLINONES AS HERBICIDES” (FMC CORPORATION, priority 2023, published 2026).

Tests used:
Type in all cases: in vivo
[1] = tested on: sedge, umbrella (small-flower umbrella sedge, Cyperus difformis); assay: Test B flooded paddy test, visual plant response rating 0-100; details: 250 g ai/ha, Flood, applied to paddy water, evaluated after 13 days
Experimental: (§1) Plant species in the flooded paddy test selected from barnyardgrass (Echinochloa crusgalli), ducksalad (Heteranthera limosa), rice (Oryza sativa), and sedge, umbrella (small-flower umbrella sedge, Cyperus difformis) were grown to the 2-leaf stage for testing. At time of treatment, test pots were flooded to 3 cm above the soil surface, treated by application of test compounds directly to the paddy water, and then maintained at that water depth for the duration of the test. Treated plants and controls were maintained in a greenhouse for 13 days, after which time all species were compared to controls and visually evaluated. […] A dash (-) response means no test result.

[2] = tested on: barnyardgrass (Echinochloa crusgalli); assay: as above; details: 250 g ai/ha, Flood, applied to paddy water, evaluated after 13 days
Experimental: as §1

[3] = tested on: ducksalad (Heteranthera limosa); assay: as above; details: 250 g ai/ha, Flood, applied to paddy water, evaluated after 13 days
Experimental: as §1

rice (Oryza sativa) = assay: as above; details: 250 g ai/ha, Flood, applied to paddy water, evaluated after 13 days
Experimental: as §1

[4] = tested on: ragweed (common ragweed, Ambrosia artemisiifolia); assay: Test A preemergence soil spray, visual injury rating 0-100; details: 10 days, 0 = no effect, 100 = complete control
Description: (§2) Seeds of plant species selected from barnyardgrass (Echinochloa crus-galli), blackgrass (Alopecurus myosuroides), corn (Zea mays), foxtail, giant (giant foxtail, Setaria faberi), green foxtail (Setaria viridis), goosegrass (Eleusine indica), kochia (Bassia scoparia), oat, wild (wild oat, Avena fatua), palmer (palmer amaranth, palmer pigweed, Amaranthus palmeri), ragweed (common ragweed, Ambrosia artemisiifolia), ryegrass, Italian (italian ryegrass, Lolium multiflorum), soybean (Glycine max) and wheat (Triticum aestivum) were planted into a blend of loam soil and sand and treated preemergence with a directed soil spray using test chemicals formulated in a non-phytotoxic solvent mixture which included a surfactant.
(§3) At the same time, plants selected from these crops and weed species and also galium (catchweed bedstraw, Galium aparine) and horseweed (Erigeron canadensis) were planted in pots containing the same blend of loam soil and sand and treated with postemergence applications of test chemicals formulated in the same manner. Plants ranged in height from 2 to 10 cm and were in the one- to two-leaf stage for the postemergence treatment. Treated plants and untreated controls were maintained in a greenhouse for 10 days, after which time all treated plants were compared to untreated controls and visually evaluated for injury. Plant response ratings, summarized in Table A, are based on a 0 to 100 scale where 0 is no effect and 100 is complete control. A dash (-) response means no test result.

[5] = tested on: blackgrass (Alopecurus myosuroides); assay: as above; details: 10 days, 0 = no effect, 100 = complete control
Description: as §2, §3

[6] = tested on: oat, wild (wild oat, Avena fatua); assay: as above; details: 10 days, 0 = no effect, 100 = complete control
Description: as §2, §3

soybean (Glycine max) [7] = assay: as above; details: 10 days, 0 = no effect, 100 = complete control
Description: as §2, §3

kochia (Bassia scoparia) [8] = assay: as above; details: 10 days, 0 = no effect, 100 = complete control
Description: as §2, §3

[9] = tested on: wheat (Triticum aestivum); assay: as above; details: 10 days, 0 = no effect, 100 = complete control
Description: as §2, §3

corn (Zea mays) [10] = assay: as above; details: 10 days, 0 = no effect, 100 = complete control
Description: as §2, §3

[11] = tested on: palmer (palmer amaranth, palmer pigweed, Amaranthus palmeri); assay: as above; details: 10 days, 0 = no effect, 100 = complete control
Description: as §2, §3

[12] = tested on: barnyardgrass (Echinochloa crus-galli); assay: as above; details: 10 days, 0 = no effect, 100 = complete control
Description: as §2, §3

[13] = tested on: green foxtail (Setaria viridis); assay: as above; details: 10 days, 0 = no effect, 100 = complete control
Description: as §2, §3

[14] = tested on: ryegrass, Italian (italian ryegrass, Lolium multiflorum); assay: as above; details: 10 days, 0 = no effect, 100 = complete control
Description: as §2, §3

[15] = tested on: ragweed (common ragweed, Ambrosia artemisiifolia); assay: Test A postemergence application, visual injury rating 0-100; details: 10 days
Description: as §2, §3

[16] = tested on: blackgrass (Alopecurus myosuroides); assay: as above; details: 10 days
Description: as §2, §3

[17] = tested on: oat, wild (wild oat, Avena fatua); assay: as above; details: 10 days
Description: as §2, §3

soybean (Glycine max) [18] = assay: as above; details: 10 days
Description: as §2, §3

kochia (Bassia scoparia) [19] = assay: as above; details: 10 days
Description: as §2, §3

[20] = tested on: wheat (Triticum aestivum); assay: as above; details: 10 days
Description: as §2, §3

[21] = tested on: horseweed (Erigeron canadensis); assay: as above; details: 10 days
Description: as §2, §3

corn (Zea mays) [22] = assay: as above; details: 10 days
Description: as §2, §3

[23] = tested on: palmer (palmer amaranth, palmer pigweed, Amaranthus palmeri); assay: as above; details: 10 days
Description: as §2, §3

[24] = tested on: barnyardgrass (Echinochloa crus-galli); assay: as above; details: 10 days
Description: as §2, §3

[25] = tested on: green foxtail (Setaria viridis); assay: as above; details: 10 days
Description: as §2, §3

[26] = tested on: ryegrass, Italian (italian ryegrass, Lolium multiflorum); assay: as above; details: 10 days
Description: as §2, §3

[27] = 31 g ai/ha, postemergence, 0 = no effect, 100 = complete control
[28] = Postemergence, 125 g ai/ha, 0 is no effect, 100 is complete control

Structure (SMILES): CC1(C(=O)NC2CCC(C(=O)O)C2)CN(c2cc(F)cc(F)c2)C(=O)O1 (centres unmarked) [Compound 9]
- Plant response rating, Sedge, Umbrella (0 to 100 scale, 0 is no effect and 100 is complete control) [1]: 0
- Plant response rating, Barnyardgrass (0 to 100 scale, 0 is no effect and 100 is complete control) [2]: 0
- Plant response rating, Ducksalad (0 to 100 scale, 0 is no effect and 100 is complete control) [3]: 0
- Plant response rating, Rice (0 to 100 scale, 0 is no effect and 100 is complete control) (rice (Oryza sativa)): 0
- Ragweed plant response rating (0-100) ([4]; 31 g ai/ha): 0
- Ragweed plant response rating (0 to 100 scale) ([4]; 125 g ai/ha): 0
- Blackgrass plant response rating (0-100) ([5]; 31 g ai/ha): 0
- Blackgrass plant response rating (0 to 100 scale) ([5]; 125 g ai/ha): 80
- Oat, Wild plant response rating (0-100) ([6]; 31 g ai/ha): 0
- Oat, Wild plant response rating (0 to 100 scale) ([6]; 125 g ai/ha): 90
- Soybean plant response rating (0-100) (soybean (Glycine max) [7]; 31 g ai/ha): 0
- Soybean plant response rating (0 to 100 scale) (soybean (Glycine max) [7]; 125 g ai/ha): 80
- Kochia plant response rating (0-100) (kochia (Bassia scoparia) [8]; 31 g ai/ha): 0
- Kochia plant response rating (0 to 100 scale) (kochia (Bassia scoparia) [8]; 125 g ai/ha): 30
- Wheat plant response rating (0-100) ([9]; 31 g ai/ha): 80
- Wheat plant response rating (0 to 100 scale) ([9]; 125 g ai/ha): 90
- Corn plant response rating (0-100) (corn (Zea mays) [10]; 31 g ai/ha): 10
- Corn plant response rating (0 to 100 scale) (corn (Zea mays) [10]; 125 g ai/ha): 80
- Amaranth, Palmer plant response rating (0-100) ([11]; 31 g ai/ha): 0
- Amaranth, Palmer plant response rating (0 to 100 scale) ([11]; 125 g ai/ha): 10
- Barnyardgrass plant response rating (0-100) ([12]; 31 g ai/ha): 0
- Barnyardgrass plant response rating (0 to 100 scale) ([12]; 125 g ai/ha): 50
- Foxtail, Green plant response rating (0-100) ([13]; 31 g ai/ha): 0
- Foxtail, Green plant response rating (0 to 100 scale) ([13]; 125 g ai/ha): 90
- Ryegrass, Italian plant response rating (0-100) ([14]; 31 g ai/ha): 0
- Ryegrass, Italian plant response rating (0 to 100 scale) ([14]; 125 g ai/ha): 90
- Ragweed plant response rating (0-100) [15, 27]: 0
- Ragweed plant response rating (0 to 100 scale) [15, 28]: 0
- Blackgrass plant response rating (0-100) [16, 27]: 60
- Blackgrass plant response rating (0 to 100 scale) [16, 28]: 70
- Oat, Wild plant response rating (0-100) [17, 27]: 90
- Oat, Wild plant response rating (0 to 100 scale) [17, 28]: 90
- Soybean plant response rating (0-100) (soybean (Glycine max) [18]; [27]): 60
- Soybean plant response rating (0 to 100 scale) (soybean (Glycine max) [18]; [28]): 70
- Kochia plant response rating (0-100) (kochia (Bassia scoparia) [19]; [27]): 50
- Kochia plant response rating (0 to 100 scale) (kochia (Bassia scoparia) [19]; [28]): 80
- Wheat plant response rating (0-100) [20, 27]: 90
- Wheat plant response rating (0 to 100 scale) [20, 28]: 90
- Horseweed plant response rating (0-100) [21, 27]: 0
- Horseweed plant response rating (0 to 100 scale) [21, 28]: 10
- Corn plant response rating (0-100) (corn (Zea mays) [22]; [27]): 20
- Corn plant response rating (0 to 100 scale) (corn (Zea mays) [22]; [28]): 100
- Amaranth, Palmer plant response rating (0-100) [23, 27]: 10
- Amaranth, Palmer / Pigweed, Palmer plant response rating (0 to 100 scale) [23, 28]: 90
- Barnyardgrass plant response rating (0-100) [24, 27]: 70
- Barnyardgrass plant response rating (0 to 100 scale) [24, 28]: 100
- Foxtail, Green plant response rating (0-100) [25, 27]: 30
- Foxtail, Green plant response rating (0 to 100 scale) [25, 28]: 90
- Ryegrass, Italian plant response rating (0-100) [26, 27]: 50
- Ryegrass, Italian plant response rating (0 to 100 scale) [26, 28]: 80
